Results taken from patent US10428048B2, “Androgen receptor antagonists” (CITY OF HOPE, priority 2015, dated 2019).
Entries after “also recorded” stand apart in the source; their conditions may differ. Where a name gives a salt, the structure may show the parent alone. Read-outs that look alike come from different tables or passages of the source.

Legend:
LNCaP cells = assay: LNCaP prostate cancer cell growth (DAPI staining); type: cell-based, human; conditions: for Inhibition of LNCaP cell growth in culture: AR-dependent LNCaP cells; for inhibition at 0.3 µM: Homo sapiens, LNCaP, read-out: LNCaP growth inhibition at 300 nM
Procedure: (§1) For growth curves, cells were transferred to charcoal-stripped media three days before they were split and plated at a density of approximately 20,000 cells/well in 48 well plates, in quadruplicate. The assay was repeated three times. The following day, medium with the indicated drugs was added to the cells. Proliferation was determined by measuring the DNA content of the cells in each well. Each day, the cells were fixed in 100% cold methanol, followed by staining for 5 min at RT with 0.2 ng/mL 4′,6-diamidino-2-phenylindole (DAPI) in PBS. The cells were washed with PBS, then read on a fluorescence plate reader (FPR) using 365/439 excitation/emission wavelengths. A student's T test was used to determine significant differences among populations.

[1] = Toxicity studies, MTD determination; conditions: in vivo
Procedure: In DMSO/PBS formulation, with MTD single dose: IV: ˜1 mg/kg; PO (oral): not determined due to poor absorption; and IP: ˜5 mg/kg. With MTD daily dosing: IP: ˜1 mg/kg. In Beta cyclodextrin formulation: MTD single dose: IV: not determined; PO (oral); ˜200 mg/kg; IP: >10 mg/kg. In MTD daily dosing: IP: at least 5 mg/kg; PO: at least 100 mg/kg.

other nuclear receptors = assay: Specificity for AR versus other nuclear receptors; type: cell-based; conditions: P24 0.1, 0.3, 1 μM; P7 0.3, 1, 3 μM
22Rv1 cells = assay: 22Rv1 cell growth in culture; type: cell-based, human; conditions: androgen-independent, AR splice variant expressing 22Rv1 cells; tosylate
Procedure: as §1

[2] = tested on: enzalutamide (enz)-resistant LNCaP cells; assay: Enzalutamide-resistant LNCaP cell growth in culture; type: cell-based, human
[3] = Solubility in solvents and formulations
[4] = Further PK studies, single dose, DMSO/PBS or BCD formulation; conditions: blood at 0.5, 2 and 24-hrs; for Drug level in blood after administration, BCD formulation: 25 mg/kg single dose; for Drug level in blood after administration, DMSO/PBS formulation: 1 mg/kg single dose
Text: Treatment: 1-2 mice with single dose and blood at 0.5, 2 and 24-hrs.

AR target genes = assay: Inhibition of AR activity in vivo (qRT-PCR of prostate tissue); set-up: species or system Mice; conditions: 5 mg/kg via osmotic pump for 4 weeks
Procedure: Total RNA was isolated from homogenized prostate or tumor tissue using an RNAeasy kit (Qiagen). RNA was reverse-transcribed (MMLV-RT; Invitrogen), and the expression of androgen-regulated genes was assessed by qPCR using a StepOne Real Time PCR System (Applied Biosystems), using SYBR green (Invitrogen) as the detecting dye and Rox (Invitrogen) as the reference dye. Differences between treated (x) and no DHT control (y) samples were normalized to RPL19 transcript levels (i.e., androgen-unresponsive) and determined with the following calculation: (2[Ctxgene1−Ctygene1])/(2[CtxRPL19−CtyRPL19]).

[5] = P24 microsomal analysis, human microsomes; type: in vitro ADME
Procedure: (§2) FIG. 16. P24 microsomal analysis.
(§3) As depicted in FIG. 16, the concentration of compound. P24 solution tested with incubation with microsomes.

[6] = P24 microsomal analysis, mouse microsomes; type: in vitro ADME
Procedure: as §2, §3

[7] = ip, Beta cyclodextrin formulation, IP, daily dosing, read-out: MTD daily dosing IP
[8] = ip, Beta cyclodextrin formulation, IP, single dose, read-out: MTD single dose IP
[9] = ip, DMSO/PBS formulation, IP, daily dosing, read-out: MTD daily dosing IP
[10] = ip, DMSO/PBS formulation, IP, single dose, read-out: MTD single dose IP
[11] = iv, DMSO/PBS formulation, IV, single dose, read-out: MTD single dose IV
[12] = po, Beta cyclodextrin formulation, PO, daily dosing, read-out: MTD daily dosing PO
[13] = po, Beta cyclodextrin formulation, PO, single dose, read-out: MTD single dose PO (oral)
[14] = 100 ng/ml P24, absence of NADPH
[15] = 100 ng/ml P24, presence of NADPH

Structure (SMILES)	Inhibition of LNCaP cell growth in culture (LNCaP cells; tosylate)	inhibition at 0.3 µM (LNCaP cells) [%]	MTD [1, 7] [mg/kg]	MTD [1, 8] [mg/kg]	MTD [1, 9] [mg/kg]	MTD [1, 10] [mg/kg]	MTD [1, 11] [mg/kg]	MTD [1, 12] [mg/kg]	MTD [1, 13] [mg/kg]	Activity against other nuclear receptors (other nuclear receptors)	Inhibition of 22Rv1 cell growth in culture (22Rv1 cells)	Inhibition of growth of enzalutamide-resistant LNCaP cells [2]	Drug level in blood after administration, BCD formulation [4]	Drug level in blood after administration, DMSO/PBS formulation [4]	further results
CNC(=O)c1ccc(N2C(=S)N(c3ccc(C#N)c(C(F)(F)F)c3)C(=O)C2(C)C)cc1F [enzalutamide, reference compound]	–	–	–	–	–	–	–	–	–	–	–	–	–	–	Inhibition of LNCaP cell growth in culture (LNCaP cells): inhibited
Cc1cc(/C=C/c2ccc3cc(N(C)C)ccc3[n+]2C)c(C)[nH]1.Cc1ccc(S(=O)(=O)[O-])cc1 [P7, (E)-6-Dimethylamino-2-(2-(2,5-dimethyl-1H-pyrrol-3-yl)ethenyl)-1-methylquinolinium tosylate]	inhibit the growth; also recorded: inhibited	100	≥ 5	> 10	~1	~5	~1	≥ 100	~200	little activity	inhibit the growth; also recorded: inhibited	inhibit the growth	more continuous peak	almost no drug	solubility ([3]; DMSO, organic solvent or mixture): ~10000 µg/mL; solubility ([3]; acetonitrile, organic solvent or mixture): < 5000 µg/mL; solubility ([3]; beta cyclodextrin, aqueous with cosolvent or surfactant or cyclodextrin): ~5000 µg/mL; solubility ([3]; buffer B (aqueous), aqueous buffer): < 5000 µg/mL; solubility ([3]; ethanol, organic solvent or mixture): ~5000 µg/mL; solubility ([3]; gamma cyclodextrin, aqueous with cosolvent or surfactant or cyclodextrin): ~5000 µg/mL
Cc1cccnc1-n1c(C)cc(/C=C/c2ccc3cc(N(C)C)ccc3[n+]2C)c1C [P24, (E)-6-Dimethylamino-2-(2-(2,5-dimethyl-1-(3-methylpyridin-2-yl)-1H-pyrrol-3-yl)ethenyl)-1-methylquinolinium tosylate]	inhibit the growth; also recorded: inhibited	100	≥ 5	> 10	~1	~5	~1	≥ 100	~200	little activity	inhibit the growth; also recorded: inhibited	inhibit the growth	significant spike	almost no drug	Inhibition of AR target genes in prostate tissue (qRT-PCR) (AR target genes): inhibition of AR target genes; Breakdown in microsomes without NADPH (chemical stability) [5, 14]: lack of breakdown; Metabolism in microsomes, NADPH dependence [5, 15]: NADPH dependent; Breakdown in microsomes without NADPH (chemical stability) [6, 14]: lack of breakdown; Metabolism in microsomes, NADPH dependence [6, 15]: NADPH dependent
